Test results published in ChEMBL document CHEMBL5104131, “Pyrimidine-conjugated fluoroquinolones as new potential broad-spectrum antibacterial agents” (Bioorg Med Chem Lett, 2022).
In brackets after ≈: the same amount, converted by molar mass.

Key:
Escherichia coli [1] = assay: Antibacterial activity against Escherichia coli assessed as bacterial growth inhibition by serial dilution method; assay type: functional
Klebsiella pneumoniae = assay: Antibacterial activity against Klebsiella pneumoniae assessed as bacterial growth inhibition by serial dilution method; assay type: functional
Pseudomonas aeruginosa [2] = assay: Antibacterial activity against Pseudomonas aeruginosa ATCC 27853 assessed as bacterial growth inhibition by serial dilution method; assay type: functional
Staphylococcus aureus [3] = assay: Antibacterial activity against methicillin-resistant Staphylococcus aureus N315 assessed as bacterial growth inhibition by serial dilution method; assay type: functional
Staphylococcus aureus [4] = assay: Antibacterial activity against Staphylococcus aureus assessed as bacterial growth inhibition by serial dilution method; assay type: functional
Staphylococcus aureus [5] = assay: Antibacterial activity against Staphylococcus aureus ATCC 29213 assessed as bacterial growth inhibition by serial dilution method; assay type: functional
Staphylococcus aureus [6] = assay: Antibacterial activity against Staphylococcus aureus ATCC 25923 assessed as bacterial growth inhibition by serial dilution method; assay type: functional
Pseudomonas aeruginosa [7] = assay: Antibacterial activity against Pseudomonas aeruginosa assessed as bacterial growth inhibition by serial dilution method; assay type: functional
Enterococcus faecalis = assay: Antibacterial activity against Enterococcus faecalis assessed as bacterial growth inhibition by serial dilution method; assay type: functional
Escherichia coli [8] = assay: Antibacterial activity against Escherichia coli ATCC 25922 assessed as bacterial growth inhibition by serial dilution method; assay type: functional
Acinetobacter baumannii = assay: Antibacterial activity against Acinetobacter baumannii assessed as bacterial growth inhibition by serial dilution method; assay type: functional
Aspergillus fumigatus = assay: Antifungal activity against Aspergillus fumigatus assessed as inhibition of fungal growth; assay type: functional
Candida tropicalis = assay: Antifungal activity against Candida tropicalis assessed as inhibition of fungal growth; assay type: functional
Candida parapsilosis = assay: Antifungal activity against Candida parapsilosis ATCC 22019 assessed as inhibition of fungal growth; assay type: functional; details: Lodderomyces parapsilosis
[9] = Cytotoxicity against human HaCaT cells assessed as cell viability at 12.5 ug/ml by CCK-8 assay relative to control; assay type: toxicity, cell-based; details: at 12.5 µg/mL, read-out: Activity
[10] = Cytotoxicity against human HaCaT cells assessed as cell viability at 50 ug/ml by CCK-8 assay relative to control; assay type: toxicity, cell-based; details: at 50 µg/mL, read-out: Activity

CCn1cc(C(=O)O)c(=O)c2cc(F)c(N3CCN(c4ncccn4)CC3)cc21
MIC (Escherichia coli [1]): 16 µg/mL (≈ 40.3 µM)
MIC (Klebsiella pneumoniae): 4 µg/mL (≈ 10.1 µM)
MIC (Pseudomonas aeruginosa [2]): 128 µg/mL (≈ 322 µM)
MIC (Staphylococcus aureus [3]): 2 µg/mL (≈ 5.03 µM)
MIC (Staphylococcus aureus [4]): 64 µg/mL (≈ 161 µM)
MIC (Staphylococcus aureus [5]): 32 µg/mL (≈ 80.5 µM)
MIC (Staphylococcus aureus [6]): 8 µg/mL (≈ 20.1 µM)
MIC (Pseudomonas aeruginosa [7]): 16 µg/mL (≈ 40.3 µM)
MIC (Enterococcus faecalis): 8 µg/mL (≈ 20.1 µM)
MIC (Escherichia coli [8]): 64 µg/mL (≈ 161 µM)
MIC (Acinetobacter baumannii): 64 µg/mL (≈ 161 µM)
MIC (Aspergillus fumigatus): 2 µg/mL (≈ 5.03 µM)

OC(Cn1cncn1)(Cn1cncn1)c1ccc(F)cc1F [FLUCONAZOLE]
MIC (Aspergillus fumigatus): 256 µg/mL (≈ 836 µM)

CCn1cc(C(=O)O)c(=O)c2cc(F)c(N3CCN(c4ncc(C)cn4)CC3)cc21
MIC (Escherichia coli [1]): 16 µg/mL (≈ 38.9 µM)
MIC (Klebsiella pneumoniae): 2 µg/mL (≈ 4.86 µM)
MIC (Pseudomonas aeruginosa [2]): 128 µg/mL (≈ 311 µM)
MIC (Staphylococcus aureus [3]): 8 µg/mL (≈ 19.4 µM)
MIC (Staphylococcus aureus [4]): 4 µg/mL (≈ 9.72 µM)
MIC (Staphylococcus aureus [5]): 4 µg/mL (≈ 9.72 µM)
MIC (Staphylococcus aureus [6]): 64 µg/mL (≈ 156 µM)
MIC (Pseudomonas aeruginosa [7]): 4 µg/mL (≈ 9.72 µM)
MIC (Enterococcus faecalis): 2 µg/mL (≈ 4.86 µM)
MIC (Escherichia coli [8]): 2 µg/mL (≈ 4.86 µM)
MIC (Acinetobacter baumannii): 128 µg/mL (≈ 311 µM)
MIC (Aspergillus fumigatus): 2 µg/mL (≈ 4.86 µM)

O=C(O)c1cn(C2CC2)c2cc(N3CCN(c4nccc(C(F)(F)F)n4)CC3)c(F)cc2c1=O
MIC (Escherichia coli [1]): 128 µg/mL (≈ 268 µM)
MIC (Klebsiella pneumoniae): 128 µg/mL (≈ 268 µM)
MIC (Pseudomonas aeruginosa [2]): 128 µg/mL (≈ 268 µM)
MIC (Staphylococcus aureus [3]): 64 µg/mL (≈ 134 µM)
MIC (Staphylococcus aureus [4]): 128 µg/mL (≈ 268 µM)
MIC (Staphylococcus aureus [5]): 64 µg/mL (≈ 134 µM)
MIC (Staphylococcus aureus [6]): 128 µg/mL (≈ 268 µM)
MIC (Pseudomonas aeruginosa [7]): 64 µg/mL (≈ 134 µM)
MIC (Enterococcus faecalis): 8 µg/mL (≈ 16.8 µM)
MIC (Escherichia coli [8]): 32 µg/mL (≈ 67 µM)
MIC (Acinetobacter baumannii): > 256 µg/mL

COc1cnc(N2CCN(c3cc4c(cc3F)c(=O)c(C(=O)O)cn4C3CC3)CC2)nc1
MIC (Escherichia coli [1]): 64 µg/mL (≈ 146 µM)
MIC (Klebsiella pneumoniae): 16 µg/mL (≈ 36.4 µM)
MIC (Candida tropicalis): 2 µg/mL (≈ 4.55 µM)
MIC (Pseudomonas aeruginosa [2]): 32 µg/mL (≈ 72.8 µM)
MIC (Staphylococcus aureus [3]): 32 µg/mL (≈ 72.8 µM)
MIC (Staphylococcus aureus [4]): 256 µg/mL (≈ 583 µM)
MIC (Staphylococcus aureus [5]): 2 µg/mL (≈ 4.55 µM)
MIC (Staphylococcus aureus [6]): 8 µg/mL (≈ 18.2 µM)
MIC (Pseudomonas aeruginosa [7]): 64 µg/mL (≈ 146 µM)
MIC (Enterococcus faecalis): 32 µg/mL (≈ 72.8 µM)
MIC (Escherichia coli [8]): 4 µg/mL (≈ 9.1 µM)
MIC (Acinetobacter baumannii): 1 µg/mL (≈ 2.28 µM)
MIC (Candida parapsilosis): 2 µg/mL (≈ 4.55 µM)

CCc1cnc(N2CCN(c3cc4c(cc3F)c(=O)c(C(=O)O)cn4CC)CC2)nc1
MIC (Escherichia coli [1]): 16 µg/mL (≈ 37.6 µM)
MIC (Klebsiella pneumoniae): 2 µg/mL (≈ 4.7 µM)
MIC (Pseudomonas aeruginosa [2]): 128 µg/mL (≈ 301 µM)
MIC (Staphylococcus aureus [3]): 2 µg/mL (≈ 4.7 µM)
MIC (Staphylococcus aureus [4]): 8 µg/mL (≈ 18.8 µM)
MIC (Staphylococcus aureus [5]): 64 µg/mL (≈ 150 µM)
MIC (Staphylococcus aureus [6]): 2 µg/mL (≈ 4.7 µM)
MIC (Pseudomonas aeruginosa [7]): 2 µg/mL (≈ 4.7 µM)
MIC (Enterococcus faecalis): 2 µg/mL (≈ 4.7 µM)
MIC (Escherichia coli [8]): 1 µg/mL (≈ 2.35 µM)
MIC (Acinetobacter baumannii): 128 µg/mL (≈ 301 µM)

O=C(O)c1cn(C2CC2)c2cc(N3CCNCC3)c(F)cc2c1=O [CIPROFLOXACIN]
MIC (Klebsiella pneumoniae): 2 µg/mL (≈ 6.04 µM)
MIC (Pseudomonas aeruginosa [2]): 1 µg/mL (≈ 3.02 µM)
MIC (Staphylococcus aureus [3]): 2 µg/mL (≈ 6.04 µM)
MIC (Staphylococcus aureus [4]): 2 µg/mL (≈ 6.04 µM)
MIC (Staphylococcus aureus [5]): 0.5 µg/mL (≈ 1.51 µM)
MIC (Staphylococcus aureus [6]): 2 µg/mL (≈ 6.04 µM)
MIC (Enterococcus faecalis): 1 µg/mL (≈ 3.02 µM)

CCn1cc(C(=O)O)c(=O)c2cc(F)c(N3CCN(c4ncc(OC)cn4)CC3)cc21
MIC (Escherichia coli [1]): 64 µg/mL (≈ 150 µM)
MIC (Klebsiella pneumoniae): 64 µg/mL (≈ 150 µM)
MIC (Pseudomonas aeruginosa [2]): 128 µg/mL (≈ 299 µM)
MIC (Staphylococcus aureus [3]): 1 µg/mL (≈ 2.34 µM)
MIC (Staphylococcus aureus [4]): 2 µg/mL (≈ 4.68 µM)
MIC (Staphylococcus aureus [5]): 8 µg/mL (≈ 18.7 µM)
MIC (Staphylococcus aureus [6]): 32 µg/mL (≈ 74.9 µM)
MIC (Pseudomonas aeruginosa [7]): 32 µg/mL (≈ 74.9 µM)
MIC (Enterococcus faecalis): 1 µg/mL (≈ 2.34 µM)
MIC (Escherichia coli [8]): 2 µg/mL (≈ 4.68 µM)
MIC (Acinetobacter baumannii): 128 µg/mL (≈ 299 µM)
MIC (Aspergillus fumigatus): 2 µg/mL (≈ 4.68 µM)

CCn1cc(C(=O)O)c(=O)c2cc(F)c(N3CCN(c4ncc(F)cn4)CC3)cc21
MIC (Escherichia coli [1]): 16 µg/mL (≈ 38.5 µM)
MIC (Klebsiella pneumoniae): 128 µg/mL (≈ 308 µM)
MIC (Pseudomonas aeruginosa [2]): 256 µg/mL (≈ 616 µM)
MIC (Staphylococcus aureus [3]): 64 µg/mL (≈ 154 µM)
MIC (Staphylococcus aureus [4]): 4 µg/mL (≈ 9.63 µM)
MIC (Staphylococcus aureus [5]): 16 µg/mL (≈ 38.5 µM)
MIC (Staphylococcus aureus [6]): 16 µg/mL (≈ 38.5 µM)
MIC (Pseudomonas aeruginosa [7]): 32 µg/mL (≈ 77 µM)
MIC (Enterococcus faecalis): 4 µg/mL (≈ 9.63 µM)
MIC (Escherichia coli [8]): 128 µg/mL (≈ 308 µM)
MIC (Acinetobacter baumannii): > 256 µg/mL

O=C(O)c1cn(C2CC2)c2cc(N3CCN(c4ncccn4)CC3)c(F)cc2c1=O
MIC (Escherichia coli [1]): 8 µg/mL (≈ 19.5 µM)
MIC (Klebsiella pneumoniae): 64 µg/mL (≈ 156 µM)
MIC (Pseudomonas aeruginosa [2]): 32 µg/mL (≈ 78.2 µM)
MIC (Staphylococcus aureus [3]): 16 µg/mL (≈ 39.1 µM)
viability at 12.5 ug/ml [9]: > 90%
viability at 50 ug/ml [10]: 70%
MIC (Staphylococcus aureus [4]): 4 µg/mL (≈ 9.77 µM)
MIC (Staphylococcus aureus [5]): 32 µg/mL (≈ 78.2 µM)
MIC (Staphylococcus aureus [6]): 64 µg/mL (≈ 156 µM)
MIC (Pseudomonas aeruginosa [7]): 8 µg/mL (≈ 19.5 µM)
MIC (Enterococcus faecalis): 2 µg/mL (≈ 4.88 µM)
MIC (Escherichia coli [8]): 1 µg/mL (≈ 2.44 µM)
MIC (Acinetobacter baumannii): > 256 µg/mL
MIC (Aspergillus fumigatus): 1 µg/mL (≈ 2.44 µM)
